Experimental data: patent US12005122B2, “Compounds and methods for diagnosis and treatment of viral infections” (priority 2016, dated 2024)

Key:
Zika virus [1] = assay: Zika virus plaque assay on Vero cells; type: cell-based; conditions: Vero cells infected with Zika virus
Zika virus [2] = assay: Percent infectivity of Zika-infected VERO cells (FIG. 5); type: cell-based; conditions: FIGS. 4 and 5; 5 μM and 1 μM

For “dextran 3-[(2-aminoethyl)thio]propyl 17-carboxy-10,13,16-tris(carboxymethyl)-8-oxo-4-thia-7,10,13,16-tetraazaheptadec-1-yl 3-[[2-[[1-imino-2-(D-mannopyranosylthio)ethyl]amino]ethyl]thio]propyl ether complexes [Tilmanocept]”, the “Reduction of Zika virus in infected Vero cells” value (Zika virus [1]) was 99.9% and the “Effect on Zika infection of VERO cells” value (Zika virus [2]) was “no effect”.
